The record followed here is PubChem BioAssay (NCI).

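48-hour exposure; five concentrations; linearly interpolated endpoints. GI50: concentration for 50% inhibition of growth. TGI: concentration producing complete growth inhibition.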

Among the test systems are SNB-19 CNS; OVCAR-4 ovarian; UACC-257 melanoma; NCI-H522 lung; K-562 leukemia; A549 NSCLC; HT29 colon; HCT-116 colon.
Common to all, as to test: DTP human tumour cell line panel, 48 h

In general, TGI refers to the concentration giving total growth inhibition. A low value points to more potent growth arrest. Usually GI50 stands for the concentration that inhibits growth by half.

On to `O=C(CN1CCCCC1)N1CCc2c([nH]c3ccccc23)C1c1cccnc1` (stereo unspecified), for which the TGI with SNB-19 CNS, in the assay on OVCAR-4 ovarian, in the assay on UACC-257 melanoma, in the assay on NCI-H522 lung, in the assay with K-562 leukemia and with A549 NSCLC was over 100 µM each time. The TGI with HT29 colon and with HCT-116 colon was over 100 µM in each case.

With `CN=NN(C)C(=O)NC`, the TGI in the assay on SNB-19 CNS, in the assay on OVCAR-4 ovarian, in the assay with NCI-H522 lung, with K-562 leukemia, with A549 NSCLC and in the assay on HT29 colon was over 100 µM each time. The same compound showed a TGI in the assay on HCT-116 colon of over 100 µM.

On to `CCOC(=O)C1N(S(=O)(=O)c2ccc(C)cc2)CCC12C(c1ccc(OC)cc1)NC1CCCCC12` (stereo unspecified), for which the TGI in the assay with SNB-19 CNS, in the assay on OVCAR-4 ovarian, in the assay with UACC-257 melanoma, with NCI-H522 lung, in the assay on K-562 leukemia and in the assay with A549 NSCLC was over 100 µM each time. Further, the concentration for total growth inhibition (TGI) in the assay on HT29 colon and in the assay on HCT-116 colon was over 100 µM throughout.

Consider `CC(=O)OCC1OC([S-])C(OC(C)=O)C(OC(C)=O)C1OC(C)=O.CC[PH+](CC)CC.CC[PH+](CC)CC.[Au].[Au]` (stereo unspecified), for which the GI50 in the assay with SNB-19 CNS is 0.197 µM; with OVCAR-4 ovarian, 0.506 µM; with UACC-257 melanoma it was 0.214 µM; with K-562 leukemia it was 0.0834 µM; in the assay on A549 NSCLC, 1.72 µM; with HT29 colon it was 0.319 µM. Moreover, the GI50 with HCT-116 colon is 0.397 µM. Also, the TGI stood at 0.552 µM in the assay with SNB-19 CNS; 1.88 µM in the assay with OVCAR-4 ovarian; 0.937 µM in the assay with UACC-257 melanoma; 0.337 µM with K-562 leukemia; 4 µM in the assay with A549 NSCLC; 0.989 µM in the assay on HT29 colon. This compound had a TGI with HCT-116 colon of 1.7 µM.

Take `COc1ccccc1NC(=O)C1=C(C)NC(C)=C(C(=O)Nc2ccccc2OC)C1c1ccc([N+](=O)[O-])cc1`: the TGI with SNB-19 CNS, in the assay on OVCAR-4 ovarian, in the assay on UACC-257 melanoma, with NCI-H522 lung, in the assay on K-562 leukemia and with A549 NSCLC was over 100 µM throughout. The TGI with HT29 colon and in the assay with HCT-116 colon was over 100 µM each time.

Consider `O=C(/C=C/c1ccccc1)/C=C/c1ccccc1`, for which the TGI was 53.2 µM with OVCAR-4 ovarian; 87 µM in the assay on UACC-257 melanoma; over 100 µM in the assay with K-562 leukemia; over 100 µM with A549 NSCLC; 35.1 µM in the assay with HT29 colon; 32.1 µM in the assay on HCT-116 colon.

For the compound `CC1=C(C(=O)Nc2c(C)cccc2C)C(c2ccccc2Cl)C(C(=O)Nc2c(C)cccc2C)=C(C)N1`, the TGI with SNB-19 CNS, with OVCAR-4 ovarian, in the assay on UACC-257 melanoma, in the assay with NCI-H522 lung, with K-562 leukemia and with A549 NSCLC was over 100 µM each time. The compound also showed a concentration for total growth inhibition (TGI) in the assay with HT29 colon of over 100 µM.

Consider `O=S(O)CCCCSSCc1ccccc1CSSCCCCS(=O)O`, for which the TGI in the assay with SNB-19 CNS is over 100 µM; with OVCAR-4 ovarian it was 18.3 µM; in the assay with UACC-257 melanoma, 18.2 µM; with NCI-H522 lung, 18.7 µM; in the assay on K-562 leukemia, 82.3 µM; in the assay on A549 NSCLC, over 100 µM. The same compound displayed a TGI in the assay with HT29 colon of 20.6 µM.

`Cc1cc(C)n(CCNCCn2nc(C)cc2C)n1`: the TGI with SNB-19 CNS, in the assay on OVCAR-4 ovarian, with UACC-257 melanoma, in the assay on NCI-H522 lung, in the assay with K-562 leukemia and in the assay on A549 NSCLC was over 100 µM in each case. In addition, the TGI in the assay on HCT-116 colon is over 100 µM.

Regarding `O=C(CSc1nnc(-c2ccccc2NC(=O)C(F)(F)F)c(=O)[nH]1)NC(=O)Nc1ccccc1`, the TGI with SNB-19 CNS, in the assay on NCI-H522 lung, with K-562 leukemia, in the assay on A549 NSCLC, with HT29 colon and in the assay on HCT-116 colon was over 100 µM each time.

With `C#CC(=O)Nc1cccc(Nc2nc3c(c(NCc4ccccc4)n2)CCCC3)c1`, the GI50 in the assay with SNB-19 CNS was 0.591 µM; in the assay on OVCAR-4 ovarian it was 0.291 µM; with NCI-H522 lung, under 0.01 µM; in the assay on K-562 leukemia, 1.39 µM; in the assay on HCT-116 colon it was 0.12 µM. Moreover, the TGI in the assay with SNB-19 CNS was 1.98 µM; with OVCAR-4 ovarian, 1.02 µM; with NCI-H522 lung it was under 0.01 µM; in the assay on K-562 leukemia it was 5.96 µM; in the assay on HCT-116 colon it was 0.291 µM.

As for `O=C(CCC/C(CC(=O)c1ccc(Br)cc1)=N\O)Nc1ccccc1`, the TGI with SNB-19 CNS, in the assay with OVCAR-4 ovarian, in the assay with UACC-257 melanoma, in the assay on A549 NSCLC, in the assay with HT29 colon and with HCT-116 colon was over 100 µM throughout.

On to `CCOC(=O)CCc1c(C)c2c(OC(C)=O)cc(OC(C)=O)cc2oc1=O`, for which the TGI in the assay on SNB-19 CNS, in the assay on OVCAR-4 ovarian, with UACC-257 melanoma, in the assay on NCI-H522 lung, with A549 NSCLC and with HT29 colon was over 100 µM throughout. In the assay with HCT-116 colon, this compound returned a TGI of over 100 µM.
